According to patent US10919889B2, “Chiral heterocyclic compound with hedgehog pathway antagonist activity, method and use thereof” (SUZHOU KINTOR PHARMACEUTICALS, INC., priority 2016, dated 2021):
Where two headings read alike, the source gives them in different places.

Legend:
Assay type in all cases: in vitro ADME
[1] = molecular target: T1, CYP2C9 (Homo sapiens, UniProt P11712); experiment: CYP liver enzyme inhibition experiment, CYP-2C9; conditions: human liver microsomes
T1 construct: containing HLM (0.2 mg/mL), phosphate buffer (100 mM, pH 7.4); from tissue; host or cells: liver microsomes (HLM)
Protocol: (§1) The five major CYP isozymes and their respective probe substrates were: CYP-1A2 (phenacetin, 30 μM), CYP-2C9 (toluenesulfonylurea, 100 μM), CYP-2C19 40 μM), CYP-2D6 (dextromethorphan, 5 μM) and CYP-3A4 (midazolam, 1 μM). All probes were used close to or below their KMS concentrations. The mixture (200 μL) was incubated in a 37° C. constant temperature water bath, containing HLM (0.2 mg/mL), phosphate buffer (100 mM, pH 7.4), NADPH […], test compound (10 μM) and the respective CYP probe substrate. Before the reaction with NADPH, the mixture was pre-incubated for 10 minutes to undergo inhibitor-enzyme interaction. After a specific period of time (10 minutes for CYP-1A2, 2D6 and 3A4; 30 minutes for CYP-2C9 and 2C19), the reaction was quenched by addition to 100 μL solution of appropriate amount of cold acetonitrile. Reaction system was centrifuged and injected into the LC-MS/MS to quantify the concentration of specific metabolite formed from the substrate and the CYP enzyme. Each test compound was tested at least three times independently.
Five major CYP isozymes and their corresponding substrates are: CYP-1A2 (phenacetin, 30 μM), […], CYP2C19 (S-mephenytoin, 40 μM), CYP2D6 (dextromethorphan, 5 μM), and CYP3A4 (midazolam, 1 μM), respectively. All probe substrates were used at or lower than their KMS concentrations.
A mixture (200 μL) can be incubated at 37° C. This mixture can comprise HLM (0.2 mg/mL), phosphate buffer (100 mM, pH at about 7.4), nicotinamide adenine dinucleotide phosphate (NADPH) […], a testing compound (compound B or compound B1), and the individual substrate for the CYP isozyme tested.
Before the start of the reaction with NADPH, the above mixture can be pre-incubated for about 10 minutes to allow inhibitor-enzyme interactions. Then at specific time points (10 minutes time point for CYP-1A2, 2D6 and 3A4; 30 minutes time point for CYP-2C9 and 2C19), the reaction can be quenched by the addition of about 100 μL cold acetonitrile. The quenched mixture can be centrifuged, and aliquots of the mixture can then be analyzed by LC-MS/MS to quantify the concentrations of specific metabolic products for each CYP isozyme. For each testing compound, at least three independent assays can be completed.

[2] = molecular target: T2, CYP1A2 (Homo sapiens, UniProt P05177); experiment: CYP liver enzyme inhibition experiment, CYP-1A2; conditions: human liver microsomes, pH 7.4, probe phenacetin, test compound 10 μM, HLM, phenacetin 30 μM, read-out: CYP-1A2 Inhibitory rate (%)
T2 construct: containing HLM (0.2 mg/mL), phosphate buffer (100 mM, pH 7.4); from tissue; host or cells: liver microsomes (HLM)
T2 sequence (P05177 1-516): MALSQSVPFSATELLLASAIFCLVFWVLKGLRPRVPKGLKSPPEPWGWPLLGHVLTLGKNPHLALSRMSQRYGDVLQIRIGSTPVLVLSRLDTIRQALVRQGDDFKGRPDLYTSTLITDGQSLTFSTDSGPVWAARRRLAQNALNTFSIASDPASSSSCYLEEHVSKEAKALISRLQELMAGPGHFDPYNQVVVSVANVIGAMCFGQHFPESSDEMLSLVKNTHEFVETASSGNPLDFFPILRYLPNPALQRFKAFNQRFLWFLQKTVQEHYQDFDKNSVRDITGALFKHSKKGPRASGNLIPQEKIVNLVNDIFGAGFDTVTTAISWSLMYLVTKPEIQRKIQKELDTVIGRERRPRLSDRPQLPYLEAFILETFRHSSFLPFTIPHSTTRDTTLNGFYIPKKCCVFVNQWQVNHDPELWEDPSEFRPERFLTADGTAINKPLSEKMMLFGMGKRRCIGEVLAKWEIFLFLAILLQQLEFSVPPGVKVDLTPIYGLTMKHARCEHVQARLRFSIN
Protocol: as §1, with “independently. […]” for “independently.”
(§2) Before the start of the reaction with NADPH, the above mixture can be pre-incubated for about 10 minutes to allow inhibitor-enzyme interactions. […] The quenched mixture can be centrifuged, and aliquots of the mixture can then be analyzed by LC-MS/MS to quantify the concentrations of specific metabolic products for each CYP isozyme. […]

[3] = molecular target: T3, CYP3A4 (Homo sapiens, UniProt P08684); experiment: CYP liver enzyme inhibition experiment, CYP-3A4; conditions: human liver microsomes, pH 7.4, probe midazolam, test compound 10 μM, HLM, midazolam 1 μM, read-out: CYP-3A4 Inhibitory rate (%)
T3 construct: containing HLM (0.2 mg/mL), phosphate buffer (100 mM, pH 7.4); from tissue; host or cells: liver microsomes (HLM)
Protocol: as §1, with “independently. […]” for “independently.”
as §2

[4] = pH 7.4, probe tolbutamide (tolbutamide hydroxylation), Table 6, HLM, read-out: CYP-2C9 Inhibition (%)
[5] = pH 7.4, probe toluenesulfonylurea (tolbutamide), 100 µM, at 10 μM, read-out: inhibitory activity against CYP-2C9
[6] = pH 7.4, probe toluenesulfonylurea (tolbutamide), 100 µM, at a concentration of 10M, read-out: inhibitory rate to CYP-2C9
[7] = pH 7.4, probe toluenesulfonylurea (tolbutamide), 100 µM, test compound 10 μM, HLM, read-out: CYP-2C9 Inhibitory rate (%)

T1 sequence (P11712 whole entry): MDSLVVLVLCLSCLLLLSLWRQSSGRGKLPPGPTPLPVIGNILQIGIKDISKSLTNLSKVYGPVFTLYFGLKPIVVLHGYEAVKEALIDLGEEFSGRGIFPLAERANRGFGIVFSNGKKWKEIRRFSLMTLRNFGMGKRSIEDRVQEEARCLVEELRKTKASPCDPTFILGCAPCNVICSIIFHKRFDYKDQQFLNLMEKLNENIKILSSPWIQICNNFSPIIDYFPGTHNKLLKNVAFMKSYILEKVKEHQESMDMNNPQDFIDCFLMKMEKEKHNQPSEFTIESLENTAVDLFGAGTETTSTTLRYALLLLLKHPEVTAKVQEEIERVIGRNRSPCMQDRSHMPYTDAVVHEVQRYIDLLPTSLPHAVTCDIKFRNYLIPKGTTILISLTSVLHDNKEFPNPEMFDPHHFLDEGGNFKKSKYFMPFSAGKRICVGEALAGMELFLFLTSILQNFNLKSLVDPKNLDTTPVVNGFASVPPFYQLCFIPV
T3 sequence (P08684 whole entry): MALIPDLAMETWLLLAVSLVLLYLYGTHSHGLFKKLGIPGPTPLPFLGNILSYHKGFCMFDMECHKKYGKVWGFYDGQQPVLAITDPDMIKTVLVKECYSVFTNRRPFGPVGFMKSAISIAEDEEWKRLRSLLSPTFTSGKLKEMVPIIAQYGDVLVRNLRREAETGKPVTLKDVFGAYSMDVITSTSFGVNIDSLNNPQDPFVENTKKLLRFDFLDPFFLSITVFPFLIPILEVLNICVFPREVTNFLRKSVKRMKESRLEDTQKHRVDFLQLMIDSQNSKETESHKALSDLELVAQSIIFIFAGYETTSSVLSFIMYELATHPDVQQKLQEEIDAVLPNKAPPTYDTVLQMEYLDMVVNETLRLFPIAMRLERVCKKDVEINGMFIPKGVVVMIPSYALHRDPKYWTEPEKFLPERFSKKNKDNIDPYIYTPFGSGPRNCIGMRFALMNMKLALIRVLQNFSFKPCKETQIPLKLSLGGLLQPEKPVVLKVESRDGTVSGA

| inhibition at 30 min, 10 µM [1, 4] [%] | inhibition at 30 min, 10 µM [1, 5] [%] | inhibition at 30 min, 10 µM [1, 6] [%] | inhibition at 30 min, 10 µM [1, 7] [%] | inhibition at 10 min, 10 µM [2] [%] | inhibition at 10 min, 10 µM [3] [%] | SMILES |
| --- | --- | --- | --- | --- | --- | --- |
| 26 ± 6 | ~26 | 26 | 26 ± 6 | 22 ± 15 | 20 ± 5.9 | Cc1cnc(-c2cc(N3CCc4nc(N5CCC(O)CC5)ncc4[C@H]3C)ncc2Cl)c(C)c1 [Compound B1, (R)-1-(6-(5′-chloro-3,5-dimethyl-[2,4′-bipyridin]-2′-yl)-5-methyl-5,6,7,8-tetrahydropyrido[4,3-d]pyrimidin-2-yl)piperidin-4-ol] |
| 52 ± 5.2 | ~52 | > 50 | 52 ± 5.2 | 21 ± 1.3 | 21 ± 4 | Cc1cnc(-c2cc(N3CCc4nc(N5CCC(O)CC5)ncc4C3C)ncc2Cl)c(C)c1 (racemic) [B] |
